In ChEMBL document CHEMBL5126605, “Nucleic-Acid-Based Targeted Degradation in Drug Discovery” (J Med Chem, 2022):

Tests used:
Huntingtin [1] = molecular target: T1, Huntingtin (Homo sapiens, UniProt P42858); assay: Induction of human HTT degradation in human SH-SY5Y cells assessed as decrease in normal HTT protein levels at 125 nM by Western blot analysis; type: cell-based; parameters: scale not given: the % may be the effect or the level left
Huntingtin [2] = molecular target: T1, Huntingtin; assay: Induction of human HTT degradation in human SH-SY5Y cells assessed as decrease in HTT-transcript levels at 125 nM; type: cell-based; parameters: scale not given: the % may be the effect or the level left
Huntingtin [3] = molecular target: T1, Huntingtin; assay: Inhibition of HTT (unknown origin)
MDA-MB-231 [4] = assay: RIBOTAC activity at Pre-miR-21 RNA/RNase L in human MDA-MB-231 cells assessed as decrease in mature miR-21 levels at 5 uM by RT-qPCR analysis; type: cell-based; parameters: scale not given: the % may be the effect or the level left
[5] = RIBOTAC activity at Pre-miR-21 RNA/RNase L in human MDA-MB-231 cells assessed as decrease in mature miR-21 levels by RT-qPCR analysis; type: cell-based
[6] = molecular target: T2, von Hippel-Lindau disease tumor suppressor/Bromodomain-containing protein 4 (Homo sapiens, UniProt O60885+P40337); assay: PROTAC activity at VHL/BRD4 in human MCF7 cells assessed as BRD4 degradation by measuring maximum efficacy at 50 nM measured after 24 hrs by Western blot analysis relative to control; type: cell-based
MCF7 = assay: Antitumor activity human MCF7 cells xenografted in nude mouse assessed as tumor growth inhibition at 10 mg/kg, iv administered every other day for 21 days; type: functional; conditions: MCF7, 504 h, time 21 day, read-out: TGI
[7] = molecular target: T2, von Hippel-Lindau disease tumor suppressor/Bromodomain-containing protein 4; assay: PROTAC activity at VHL/BRD4 in human MCF7 cells assessed as BRD4 degradation measured after 24 hrs by Western blot analysis; type: cell-based
[8] = Binding affinity to Cy5-labeled SARS-CoV-2 Attenuator hairpin RNA incubated for 20 mins by microscale thermophoresis analysis; parameters: species or system Severe acute respiratory syndrome coronavirus 2
MDA-MB-231 [9] = assay: Potency index, ratio of RIBOTAC activity of test compound to RIBOTAC activity of Dovitinib at Pre-miR-21 RNA/RNase L in human MDA-MB-231 cells assessed as decrease in mature miR-21 levels by RT-qPCR analysis; type: cell-based
MDA-MB-231 [10] = assay: RIBOTAC activity at Pre-miR-21 RNA/RNase L in human MDA-MB-231 cells assessed as decrease in mature miR-21 levels at 0.2 uM by RT-qPCR analysis; type: cell-based; parameters: scale not given: the % may be the effect or the level left
[11] = Binding affinity to 5' Cy5-labeled Pre-miR-210 RNA (unknown origin) incubated for 30 mins in the presence of RNase L by microscale thermophoresis analysis
[12] = Binding affinity to 5' Cy5 end-labeled DNA hairpin (unknown origin) incubated for 30 mins in the presence of RNase L by microscale thermophoresis analysis
[13] = Selectivity index, ratio of Kd for binding affinity to 5' Cy5-labeled microRNA-210 hairpin precursor (unknown origin) to Kd for binding affinity to 5' Cy5 end-labeled DNA hairpin (unknown origin) incubated for 30 mins in the presence of RNase L by microscale thermophoresis analysis

T1 sequence (P42858 whole entry): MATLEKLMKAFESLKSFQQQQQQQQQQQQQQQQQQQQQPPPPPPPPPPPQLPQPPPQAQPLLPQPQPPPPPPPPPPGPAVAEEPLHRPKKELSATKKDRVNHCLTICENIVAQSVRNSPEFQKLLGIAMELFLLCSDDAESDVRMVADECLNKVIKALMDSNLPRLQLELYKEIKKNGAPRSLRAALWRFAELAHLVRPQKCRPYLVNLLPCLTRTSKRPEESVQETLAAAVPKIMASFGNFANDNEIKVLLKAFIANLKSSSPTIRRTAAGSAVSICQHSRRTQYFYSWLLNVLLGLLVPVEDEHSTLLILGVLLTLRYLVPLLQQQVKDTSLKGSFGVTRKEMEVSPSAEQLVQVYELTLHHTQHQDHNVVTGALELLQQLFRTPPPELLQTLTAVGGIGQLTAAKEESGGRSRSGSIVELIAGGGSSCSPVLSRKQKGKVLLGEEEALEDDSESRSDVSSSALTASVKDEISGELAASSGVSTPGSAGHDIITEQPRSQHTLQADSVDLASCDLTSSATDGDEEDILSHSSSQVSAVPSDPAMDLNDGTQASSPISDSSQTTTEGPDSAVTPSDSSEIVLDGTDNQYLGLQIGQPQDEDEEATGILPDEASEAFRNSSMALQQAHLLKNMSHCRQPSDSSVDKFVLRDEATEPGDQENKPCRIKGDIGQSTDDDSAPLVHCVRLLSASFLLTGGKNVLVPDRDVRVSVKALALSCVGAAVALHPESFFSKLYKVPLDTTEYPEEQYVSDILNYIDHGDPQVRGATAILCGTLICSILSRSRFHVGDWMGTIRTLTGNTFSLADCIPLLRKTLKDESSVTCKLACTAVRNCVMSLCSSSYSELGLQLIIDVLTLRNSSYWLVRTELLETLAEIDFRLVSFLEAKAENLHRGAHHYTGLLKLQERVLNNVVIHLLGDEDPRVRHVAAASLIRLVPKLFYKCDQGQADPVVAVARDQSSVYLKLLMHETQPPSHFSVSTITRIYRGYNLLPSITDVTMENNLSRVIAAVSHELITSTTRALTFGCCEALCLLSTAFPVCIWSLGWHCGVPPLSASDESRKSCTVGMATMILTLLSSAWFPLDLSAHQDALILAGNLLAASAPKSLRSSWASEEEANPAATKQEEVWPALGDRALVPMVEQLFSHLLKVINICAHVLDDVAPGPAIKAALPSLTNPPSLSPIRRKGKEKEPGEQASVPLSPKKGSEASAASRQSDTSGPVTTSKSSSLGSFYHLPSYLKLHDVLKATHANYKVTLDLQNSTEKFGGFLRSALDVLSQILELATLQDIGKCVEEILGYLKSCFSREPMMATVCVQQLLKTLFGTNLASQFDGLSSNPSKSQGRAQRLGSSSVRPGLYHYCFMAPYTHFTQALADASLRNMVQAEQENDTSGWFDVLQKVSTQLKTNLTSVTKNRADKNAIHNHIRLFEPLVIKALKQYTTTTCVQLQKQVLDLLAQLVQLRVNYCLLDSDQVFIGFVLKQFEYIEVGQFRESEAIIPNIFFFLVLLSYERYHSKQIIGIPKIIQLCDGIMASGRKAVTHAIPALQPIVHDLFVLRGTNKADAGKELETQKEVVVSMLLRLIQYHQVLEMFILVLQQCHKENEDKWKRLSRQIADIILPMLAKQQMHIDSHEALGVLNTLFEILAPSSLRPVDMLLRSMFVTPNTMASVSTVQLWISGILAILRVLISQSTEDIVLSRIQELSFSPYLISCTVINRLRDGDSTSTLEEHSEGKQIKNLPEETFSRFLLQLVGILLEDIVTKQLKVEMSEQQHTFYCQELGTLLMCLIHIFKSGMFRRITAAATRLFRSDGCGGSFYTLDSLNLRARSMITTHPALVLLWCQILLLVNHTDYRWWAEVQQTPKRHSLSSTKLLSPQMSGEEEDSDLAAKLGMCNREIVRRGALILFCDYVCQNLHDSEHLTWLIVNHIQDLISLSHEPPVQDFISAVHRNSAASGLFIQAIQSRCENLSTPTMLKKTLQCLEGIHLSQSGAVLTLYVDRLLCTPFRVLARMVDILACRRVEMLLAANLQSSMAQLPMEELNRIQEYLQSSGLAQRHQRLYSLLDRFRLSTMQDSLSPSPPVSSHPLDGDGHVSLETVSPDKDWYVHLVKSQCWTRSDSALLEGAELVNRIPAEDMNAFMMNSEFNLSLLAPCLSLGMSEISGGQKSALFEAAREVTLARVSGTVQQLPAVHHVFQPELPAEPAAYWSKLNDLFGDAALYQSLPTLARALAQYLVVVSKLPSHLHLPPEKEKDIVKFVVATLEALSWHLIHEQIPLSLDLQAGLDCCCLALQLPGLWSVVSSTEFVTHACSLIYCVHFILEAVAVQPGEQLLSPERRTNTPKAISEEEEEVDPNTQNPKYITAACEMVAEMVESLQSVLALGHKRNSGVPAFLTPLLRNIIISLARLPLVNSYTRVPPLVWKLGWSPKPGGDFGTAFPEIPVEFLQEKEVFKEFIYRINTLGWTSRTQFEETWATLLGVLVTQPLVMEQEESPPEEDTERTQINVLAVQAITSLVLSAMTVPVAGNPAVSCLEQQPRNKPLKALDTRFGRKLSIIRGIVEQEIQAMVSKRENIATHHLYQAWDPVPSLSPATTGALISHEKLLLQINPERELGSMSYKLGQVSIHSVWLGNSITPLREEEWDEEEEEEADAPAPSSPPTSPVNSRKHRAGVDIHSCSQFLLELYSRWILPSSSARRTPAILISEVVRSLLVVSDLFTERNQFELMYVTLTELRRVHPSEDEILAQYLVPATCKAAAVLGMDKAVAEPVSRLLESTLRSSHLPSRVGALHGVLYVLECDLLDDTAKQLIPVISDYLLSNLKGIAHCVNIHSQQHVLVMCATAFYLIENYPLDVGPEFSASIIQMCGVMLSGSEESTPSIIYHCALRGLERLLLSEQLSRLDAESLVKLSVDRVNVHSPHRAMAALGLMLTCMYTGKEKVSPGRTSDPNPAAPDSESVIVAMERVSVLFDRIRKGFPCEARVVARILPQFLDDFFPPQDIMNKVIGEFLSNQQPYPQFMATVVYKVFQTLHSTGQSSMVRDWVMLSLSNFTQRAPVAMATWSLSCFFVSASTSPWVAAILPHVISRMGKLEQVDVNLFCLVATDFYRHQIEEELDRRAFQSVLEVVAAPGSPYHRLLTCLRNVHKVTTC
T2 sequence (P40337 whole entry, looked up, other chains not shown): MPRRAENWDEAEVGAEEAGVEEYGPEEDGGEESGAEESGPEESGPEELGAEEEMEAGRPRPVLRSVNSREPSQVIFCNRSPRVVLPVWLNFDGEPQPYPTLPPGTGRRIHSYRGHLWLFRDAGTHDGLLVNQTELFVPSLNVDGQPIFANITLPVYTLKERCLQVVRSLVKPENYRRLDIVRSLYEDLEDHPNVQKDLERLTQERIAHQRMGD

CC1(C)CC(Oc2ccc(-c3ccc(-c4cn[nH]c4)cc3O)nn2)CC(C)(C)N1
Activity (Huntingtin [1]): 53% | Activity (Huntingtin [2]): 95%

CC1(C)CC(Oc2ccc(-c3ccc(-c4ccnc(O)c4)cc3O)nn2)CC(C)(C)N1
IC50 (Huntingtin [3]): 40 nM

CN1CCN(c2ccc3nc(-c4c(N)c5c(F)cccc5[nH]c4=O)[nH]c3c2)CC1
Activity (MDA-MB-231 [4]): 30%

CCCN(CC(=O)N(CCC)CC(=O)N(CCC)CC(=O)N(CC(=O)NCCOCCOCCOCCOc1ccc(/C=C2\SC(Nc3ccccc3)=C(C(=O)OCC)C2=O)cc1O)Cc1cn(CCCNC(=O)CCCOc2ccc(-c3nc4ccc(-c5ccc(N6CCN(C)CC6)cc5)cc4[nH]3)cc2)nn1)C(=O)CN(Cc1cn(CCCNC(=O)CCCOc2ccc(-c3nc4cc(-c5ccc(N6CCN(C)CC6)cc5)ccc4[nH]3)cc2)nn1)C(C)=O
IC50 [5]: 50 nM

Cc1ncsc1-c1ccc([C@H](C)NC(=O)[C@@H]2C[C@@H](O)CN2C(=O)[C@H](NC(=O)COCCOCCOCCNC(=O)C[C@@H]2N=C(c3ccc(Cl)cc3)c3c(sc(C)c3C)-n3c(C)nnc32)C(C)(C)C)cc1
Emax [6]: > 90% | inhibition in vivo at 10 mg/kg (MCF7): 59.8% | EC50 [7]: 13 nM

CNc1nc(Nc2cccc(C(=O)O)c2)nc2ccccc12
Kd [8]: 11 nM

CCOC(=O)C1=C(Nc2ccccc2)S/C(=C\c2ccc(OCCOCCOCCOCCNC(=O)NCCN3CCN(c4ccc5nc(-c6c(N)c7c(F)cccc7[nH]c6=O)[nH]c5c4)CC3)c(O)c2)C1=O
Ratio (MDA-MB-231 [9]): 5 | Activity (MDA-MB-231 [10]): 30%

CN1CCN(c2ccc3nc(-c4ccc5[nH]c(-c6cccc(OCCCC(=O)NCCCOCC(O)COP(=O)(O)O[C@@H]7[C@H](O)[C@@H](COP(=O)(O)O[C@@H]8[C@H](O)[C@@H](COP(=O)(O)O[C@@H]9[C@H](O)[C@@H](COP(=O)(O)O[C@@H]%10[C@H](O)[C@@H](COP(=O)(O)O)O[C@H]%10n%10cnc%11c(N)ncnc%11%10)O[C@H]9n9cnc%10c(N)ncnc%109)O[C@H]8n8cnc9c(N)ncnc98)O[C@H]7n7cnc8c(N)ncnc87)c6)nc5c4)[nH]c3c2)CC1 (some centres not stated)
Kd [11]: 340 nM

CCN1CCC(c2cc(C)c3nc(-c4ccc5nn(C)cc5c4)cc(=O)n3c2)CC1
IC50 (Huntingtin [3]): 80 nM

CN1CCN(c2ccc3nc(-c4ccc5[nH]c(-c6cccc(OCCCC(=O)NCCCN=[N+]=[N-])c6)nc5c4)[nH]c3c2)CC1
Kd [12]: 620 nM | Ratio [13]: 5 | Kd [11]: 160 nM

CCN1CCC(c2cc3c(F)cc(-c4cc(C)c5nc(C)cn5n4)cc3nn2)CC1
IC50 (Huntingtin [3]): 8 nM
